# Measured values as given in patent publication US20250282728A1, “NITROGEN COMPRISING HETEROCYCLIC DERIVATIVES FOR THE TREATMENT OF DISORDERS ASSOCIATED WITH GPR55 RECEPTOR” (Cerevance, Inc., priority 2022, published 2025).
# pEC50: −log10 of the molar value.
# Key:
# [1] = system: striatal medium spiny neurons; assay: Electrophysiology assay: whole-cell patch clamp, firing frequency; type: cell-based, Wistar rat; details: 1 μM; rat striatal cultures, current steps 10-200 pA; FIG. 3
# Procedure: Selected compounds were tested in electrophysiology.
# Striatal cultures were prepared as follows. Wistar rat embryos (E18) were sacrificed by cervical dislocation and brains removed into an ice-cold hanks balanced salt solution (HBSS) containing 10 mM HEPES, 1 mM sodium pyruvate and 0.035% sodium bicarbonate. The brain was hemisected, striata removed and placed in a papain solution (Worthington LK003150) for 10 min at 37° C. Tissue was then vigorously triturated until devoid of clumps, passed through a 70 μm mesh filter and centrifuged at 1000 rcf for 5 min. Supernatant was discarded and cells resuspended and centrifuged once more through an ovomucoid gradient before final resuspension in plating medium (containing EMEM 75%, FBS 10%, glutamate 12.5 μM, GlutaMax 0.5 mM, sodium pyruvate 10 mM, glucose 33.3 mM, HEPES […]). Cells were counted and spot plated onto 13 mm coverslips at a density of 200K. After 3 h, solution was topped up to 1 ml with growth medium (containing NBplus 98%, B27plus 2%, GlutaMax 0.5 mM). […]
# Whole-cell patch clamp recordings were performed from visually identified medium spiny neurons. A step protocol was applied to inject current into the cell (10-200 pA, 10 pA steps, 500 ms) and resulting action potentials recorded. […] Frequency of firing was analysed off-line using Clampfit software.
# human GPR55 = target: T1, human GPR55 (Homo sapiens, UniProt Q9Y2T6); assay: Ca2+ mobilization assay (FLIPR, Calcium5 dye), human GPR55; type: cell-based; details: HEK293 cells co-expressing PK-tagged human GPR55 and EA-tagged beta-arrestin; intracellular calcium increase
# T1 construct: expressed in transfected cells; host or cells: HEK293 (human embryonic kidney) cells
# T1 sequence (Q9Y2T6 whole entry): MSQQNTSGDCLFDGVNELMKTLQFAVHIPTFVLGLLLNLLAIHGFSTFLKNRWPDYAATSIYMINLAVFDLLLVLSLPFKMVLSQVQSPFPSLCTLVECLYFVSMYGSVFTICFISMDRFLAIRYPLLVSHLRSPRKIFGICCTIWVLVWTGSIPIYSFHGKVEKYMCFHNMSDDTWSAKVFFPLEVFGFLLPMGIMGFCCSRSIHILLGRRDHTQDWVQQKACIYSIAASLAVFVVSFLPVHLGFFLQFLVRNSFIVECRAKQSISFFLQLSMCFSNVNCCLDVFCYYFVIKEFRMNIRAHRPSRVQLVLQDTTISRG
# Procedure: (§1) This cell-based assay measures the ability of compounds to activate the GPR55 receptor by measuring changes in intracellular calcium levels. HEK293 (human embryonic kidney) cells co-expressing recombinant ProLink (PK) tagged human or rat GPR55 and Enzyme Acceptor (EA) tagged beta-arrestin were seeded into PDL-coated, black-walled clear-bottom 384 well plates in assay buffer (25 mM HEPES, HBSS, 1 mM Probenicid, 0.1% BSA, pH 7.4) containing Calcium5 dye (Molecular Devices). Cells were incubated in suspension with the Calcium5 dye for 1 hour at 37° C., 5% CO2. Dilution series of the compounds in assay buffer were added to the cells in duplicate wells and compound-mediated real-time increases in intracellular calcium concentration were recorded as increased fluorescence using the Molecular Devices FLIPR instrument. Kinetic traces were reduced to a numerical value by subtracting the minimum response from the maximum response.
# rat GPR55 = target: T2, rat GPR55 (Rattus norvegicus, UniProt F1MAK4); assay: Ca2+ mobilization assay (FLIPR, Calcium5 dye), rat GPR55; type: cell-based; details: HEK293 cells co-expressing PK-tagged rat GPR55 and EA-tagged beta-arrestin; intracellular calcium increase
# T2 construct: expressed in transfected cells; host or cells: HEK293 (human embryonic kidney) cells
# T2 sequence (F1MAK4 1-319): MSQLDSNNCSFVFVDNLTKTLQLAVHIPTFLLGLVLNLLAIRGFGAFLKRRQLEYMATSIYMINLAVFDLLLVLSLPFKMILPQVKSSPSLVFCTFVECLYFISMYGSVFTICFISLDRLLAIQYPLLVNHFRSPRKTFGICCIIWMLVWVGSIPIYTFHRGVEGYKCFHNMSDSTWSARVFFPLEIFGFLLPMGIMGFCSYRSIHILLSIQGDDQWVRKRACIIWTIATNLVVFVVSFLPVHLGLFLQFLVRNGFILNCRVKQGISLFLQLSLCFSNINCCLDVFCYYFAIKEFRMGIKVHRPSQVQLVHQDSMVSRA
# Procedure: as §1
Structure (SMILES),firing frequency of medium spiny neurons relative to baseline [1],pEC50 (human GPR55),pEC50 (rat GPR55)
"C[C@@H](Nc1cnc(-c2cncc(CC(F)F)c2)cn1)c1ccc(F)cc1 [Example 31, (R)-5-(5-(2,2-difluoroethyl)pyridin-3-yl)-N-(1-(4-fluorophenyl)ethyl)pyrazin-2-amine]",significantly reduced the frequency,≥ 7.30,≥ 7.30
"C[C@@H](Nc1cnc(-c2cnnc(CC(F)(F)F)c2)cn1)c1ccc(F)cc1 [Example 57, (R)-N-(1-(4-fluorophenyl)ethyl)-5-(6-(2,2,2-trifluoroethyl)pyridazin-4-yl)pyrazin-2-amine]",,≥ 7.30,≥ 5.30
"CS(=O)(=O)c1cncc(-c2cnc(N[C@@H]3CCc4ccccc43)cn2)c1 [Example 36, (R)-N-(2,3-dihydro-1H-inden-1-yl)-5-(5-(methylsulfonyl)pyridin-3-yl)pyrazin-2-amine]",,≥ 6.70,≥ 5.30
"C[C@@H](Nc1ncc(-c2ccc3oc(=O)n(C)c3c2)cn1)c1ccc(F)cc1 [Example 63, (R)-5-(2-((1-(4-fluorophenyl)ethyl)amino)pyrimidin-5-yl)-3-methylbenzo[d]oxazol-2(3H)-one]",,≥ 6.00,≥ 6.00
"CCc1cncc(-c2ccc(N[C@H](C)c3cccc(F)c3)nc2)c1 [Example 48, (R)-5′-ethyl-N-(1-(3-fluorophenyl)ethyl)-[3,3′-bipyridin]-6-amine]",,≥ 7.30,≥ 6.00
"C[C@@H](Nc1ncc(-c2cnc3ncn(C)c3c2)nn1)c1ccc(F)cc1 [Example 82, (R)-N-(1-(4-fluorophenyl)ethyl)-6-(1-methyl-1H-imidazo[4,5-b]pyridin-6-yl)-1,2,4-triazin-3-amine]",,≥ 6.00,≥ 5.30
"CCc1cncc(-c2cnc(N[C@H](C)c3ccc(F)cc3)cn2)c1 [Example 17, (R)-5-(5-ethylpyridin-3-yl)-N-(1-(4-fluorophenyl)ethyl)pyrazin-2-amine]",,≥ 7.30,≥ 6.00
"C[C@@H](Nc1cnc(-c2cncc(OC(F)(F)F)c2)cn1)c1ccc(F)cc1 [Example 43, (R)-N-(1-(4-fluorophenyl)ethyl)-5-(5-(trifluoromethoxy)pyridin-3-yl)pyrazin-2-amine]",,≥ 7.30,≥ 5.30
"Cc1cnc(C)c(-c2ccc(N[C@H](C)c3ccc(F)cc3)nc2)c1 [Example 10, (R)-N-(1-(4-fluorophenyl)ethyl)-2′,5′-dimethyl-[3,3′-bipyridin]-6-amine]",,≥ 6.00,≥ 6.00
"CSCn1c(=O)oc2ccc(-c3cnc(N[C@H](C)c4ccc(F)cc4)nn3)cc21 [Example 70, (R)-5-(3-((1-(4-fluorophenyl)ethyl)amino)-1,2,4-triazin-6-yl)-3-((methylthio)methyl)benzo[d]oxazol-2(3H)-one]",,≥ 6.70,≥ 6.70
"C[C@@H](Nc1cnc(-c2cncc(OCC(F)(F)F)c2)cn1)c1ccc(F)cc1 [Example 42, (R)-N-(1-(4-fluorophenyl)ethyl)-5-(5-(2,2,2-trifluoroethoxy)pyridin-3-yl)pyrazin-2-amine]",,≥ 6.70,≥ 6.00
"C[C@@H](Nc1ncc(-c2ccc3ncn(C)c3c2)nn1)c1ccc(F)cc1 [Example 81, (R)-N-(1-(4-fluorophenyl)ethyl)-6-(1-methyl-1H-benzo[d]imidazol-6-yl)-1,2,4-triazin-3-amine]",,≥ 6.00,≥ 5.30
"C=Cc1cc(-c2cnc(N[C@H](C)c3ccc(F)cc3)cn2)cnn1 [Example 44, (R)-N-(1-(4-fluorophenyl)ethyl)-5-(6-vinylpyridazin-4-yl)pyrazin-2-amine]",,≥ 6.00,≥ 5.30
"C#Cc1cncc(-c2ccc(N[C@H](C)c3ccc(F)cc3)nc2)c1 [Example 51, (R)-5′-ethynyl-N-(1-(4-fluorophenyl)ethyl)-[3,3′-bipyridin]-6-amine]",,≥ 7.30,≥ 6.00
"CC(Nc1ncc(-c2ccc3oc(=O)n(C)c3c2)nn1)c1ccc(Cl)c(Cl)c1 (single isomer, unassigned) [Example 78a, 5-(3-((1-(3,4-dichlorophenyl)ethyl)amino)-1,2,4-triazin-6-yl)-3-methylbenzo[d]oxazol-2(3H)-one]",,≥ 6.00,≥ 6.00
"Cc1cncc(-c2ccc(N[C@H](C)c3ccc(F)c(F)c3)nc2)c1 [Example 2, (R)-N-(1-(3,4-difluorophenyl)ethyl)-5′-methyl-[3,3′-bipyridin]-6-amine]",,≥ 7.30,≥ 5.30
"C[C@@H](Nc1cnc(-c2cncc(S(C)(=O)=O)c2)cn1)c1ccc(F)cc1 [Example 18, (R)-N-(1-(4-fluorophenyl)ethyl)-5-(5-(methylsulfonyl)pyridin-3-yl)pyrazin-2-amine]",,≥ 7.30,≥ 7.30
"Cc1cncc(-c2ccc(NC(C)c3ccc(Cl)cc3)nc2)c1 (single isomer, unassigned) [Example 46a, N-(1-(4-chlorophenyl)ethyl)-5′-methyl-[3,3′-bipyridin]-6-amine]",,≥ 6.00,≥ 6.70
"C[C@@H](Nc1ncc(-c2ccc3oc(=O)n(C)c3c2)nn1)c1ccc(F)c(F)c1 [Example 76, (R)-5-(3-((1-(3,4-difluorophenyl)ethyl)amino)-1,2,4-triazin-6-yl)-3-methylbenzo[d]oxazol-2(3H)-one]",,≥ 6.00,≥ 6.00
"C=Cc1cncc(-c2ccc(N[C@H](C)c3ccc(F)cc3)nc2)c1 [Example 20, (R)-N-(1-(4-fluorophenyl)ethyl)-5′-vinyl-[3,3′-bipyridin]-6-amine]",,≥ 7.30,≥ 7.30
"C[C@@H](Nc1cnc(-c2ccc3oc(=O)n(C)c3c2)cn1)c1ccc(F)cc1 [Example 62, (R)-5-(5-((1-(4-fluorophenyl)ethyl)amino)pyrazin-2-yl)-3-methylbenzo[d]oxazol-2(3H)-one]",,≥ 6.00,≥ 6.00
"OC(c1cncc(-c2cnc(N[C@@H]3CCc4ccccc43)cn2)c1)C(F)F (stereo partly drawn) [Example 45, 1-(5-(5-(((R)-2,3-dihydro-1H-inden-1-yl)amino)pyrazin-2-yl)pyridin-3-yl)-2,2-difluoroethan-1-ol]",,≥ 6.70,≥ 6.00
"CC(Nc1ncc(-c2ccc3oc(=O)n(C)c3c2)nn1)c1ccc(C#N)cc1 (stereo not drawn) [Example 74, 4-(1-((6-(3-methyl-2-oxo-2,3-dihydrobenzo[d]oxazol-5-yl)-1,2,4-triazin-3-yl)amino)ethyl)benzonitrile]",,≥ 6.00,≥ 5.30
"C=Cc1cncc(-c2cnc(N[C@H](C)c3ccc(F)cc3)cn2)c1 [Example 33, (R)-N-(1-(4-fluorophenyl)ethyl)-5-(5-vinylpyridin-3-yl)pyrazin-2-amine]",,≥ 7.30,≥ 6.00
"CCc1cncc(-c2ccc(N[C@H](C)c3ccc(C)cc3)nc2)c1 [Example 50, (R)-5′-ethyl-N-(1-(p-tolyl)ethyl)-[3,3′-bipyridin]-6-amine]",,≥ 6.00,≥ 5.30
"CC[S+]([O-])c1cncc(-c2ccc(N[C@H](C)c3ccc(F)cc3)nc2)c1 (stereo partly drawn) [Example 13, 5′-(ethylsulfinyl)-N-((R)-1-(4-fluorophenyl)ethyl)-[3,3′-bipyridin]-6-amine]",,≥ 6.70,≥ 5.30
"CCc1cncc(-c2ccc(N[C@@H]3CCc4ccccc43)nc2)c1 [Example 21, (R)-N-(2,3-dihydro-1H-inden-1-yl)-5′-ethyl-[3,3′-bipyridin]-6-amine]",,≥ 6.70,≥ 5.30
"CC[S+]([O-])c1cncc(-c2cnc(N[C@H](C)c3ccc(F)cc3)cn2)c1 (stereo partly drawn) [Example 24, 5-(5-(ethylsulfinyl)pyridin-3-yl)-N-((R)-1-(4-fluorophenyl)ethyl)pyrazin-2-amine]",,≥ 6.70,≥ 5.30
